One may read the EC50 as the midpoint of the concentration-response curve.

Series [1] can be described thus: GI S9 stability (Ex. Z), dog intestinal S9. The class given is in vitro ADME. As to conditions: pooled intestinal S9 fractions; dog intestinal S9, 1.0 mg/mL protein, 2 μM substrate, pH 7.4; read-out: GIS9 DOG T½ (per Ex. Z). Summed up:
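Pooled intestinal S9 at 1.0 mg/mL protein in PBS, pH 7.4, with substrate at 2 μM final, sampled at 0–120 min and quenched in methanol/acetonitrile containing labetalol. Remaining parent quantified by LC-MS peak area ratio. Half-life from first-order exponential decline fit.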

Series [2] relates to Respiratory syncytial virus recombinant with luciferase (RSV-Luc5) in NHBE cells. Description: NHBE RSV-Luc5 384-well Assay (EC50 RSVFLUC NHBE-384, Ex. U). Conditions: human respiratory syncytial virus, 72 h, read-out: EC50 RSV FLUC NHBE 384 (per Ex. U). In kind it is cell-based. An excerpt: Example U. NHBE RSV-Luc5 384-well Assay (EC50 RSVFLUC NHBE-384)
Normal Human Bronchial Epithelial (NHBE) cells were purchased from Lonza (Walkersville, MD Cat #CC2540) and maintained in BEGM Bronchial Epithelial Cell Growth Medium BulletKit (Lonza CC-3170).
Cells were thawed, expanded, and were used for experiments at passage 2. Respiratory syncytial virus recombinant with luciferase (RSV-Luc5) (≥1×10^7 Infectious Units/ml (IU/ml) determined by TCID50) was purchased from Microbiologics (Saint Cloud, MN). Viral replication was determined in NHBE cells in the following manner.
Compounds are prepared in 100% DMSO in 384-well polypropylene plates (Greiner, Monroe, NC, Cat #784201) with 8 compounds per plate in grouped replicates of 4 at 10 serially diluted concentrations (1:3). The serially diluted compounds were transferred to low dead volume Echo plates (Labcyte, Sunnyvale, CA, Cat #LP-0200).
The test compounds were spotted to 384-well assay plates (Greiner, Monroe, NC, Cat#781091) at 200 nL per well. NHBE cells were harvested and suspended in BEGM Bronchial Epithelial Cell Growth Medium BulletKit and seeded to the pre-spotted assay plates at 5,000 cells per well in 30 μL. RSV-Luc5 virus was diluted in BEGM Bronchial Epithelial Cell Growth Medium BulletKit at 500,000 Infectious Units (IU) per mL and 10 μL per well was added to the assay plates containing cells and compounds, for an MOI of 1. The assay plates were incubated for 3 days at 37° C. and 5% CO2. At the end of incubation, One-Glo reagent (Promega, Madison, WI, Cat #E6120) was prepared. The assay plates and One-Glo reagent were equilibrated to room temperature for at least 15 minutes. 40 μL per well of One-Glo reagent was added and the plates were incubated at room temperature for 15 minutes before reading the luminescence signal on an EnVision multimode plate reader (Perkin Elmer, Waltham, MA). Remdesivir was used as positive control and DMSO was used as negative control. Values were normalized to the positive and negative controls (as 0% and 100% replication, respectively) and data was fitted using non-linear regression analysis by Gilead's dose response tool. The EC50 value for each compound was defined as the concentration reducing the viral replication by 50%.

The test system is the same in series [3]. Description: NHBE RSV-Luc5 384-well Assay (RSV FLUC NHBE 384 V2, Ex. W). Conditions: human respiratory syncytial virus, 72 h, read-out: EC50 RSV FLUC NHBE 384 V2 (per Ex. W). The class given is cell-based. The method in brief: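 NHBE cells (passage 2) seeded at 5,000 cells/well onto pre-spotted compounds, 10-point 1:3 dilutions, then infected with RSV-Luc5 at MOI 1. After 3 days at 37 °C, luciferase luminescence was read with One-Glo. Data normalized to remdesivir (0%) and DMSO (100% replication); EC50 from non-linear regression.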

For the compound `Cc1ccc(C(=O)OC[C@@]2(C#N)O[C@@H](c3ccc4c(N)ncnn34)[C@H](O)[C@@H]2O)cc1` [Compound 14, ((2R,3S,4R,5S)-5-(4-aminopyrrolo[2,1-f][1,2,4]triazin-7-yl)-2-cyano-3,4-dihydroxytetrahydrofuran-2-yl)methyl 4-methylbenzoate], the half-life at 2 μM in series [1] came to 426 min. In addition, the EC50 in series [2] is 8.82 µM; in series [3], 9.6 µM.
The matching figures for `N#C[C@]1(COC(=O)C2CCCC2)O[C@@H](c2ccc3c(N)ncnn23)[C@H](O)[C@@H]1O` [Compound 18, ((2R,3S,4R,5S)-5-(4-aminopyrrolo[2,1-f][1,2,4]triazin-7-yl)-2-cyano-3,4-dihydroxytetrahydrofuran-2-yl)methyl cyclopentanecarboxylate]: 26 min, 8.99 µM and 8.71 µM.
On to `CCC(CC)C(=O)OC[C@@]1(C#N)O[C@@H](c2ccc3c(N)ncnn23)[C@H](O)[C@@H]1O` [Compound 9, ((2R,3S,4R,5S)-5-(4-aminopyrrolo[2,1-f][1,2,4]triazin-7-yl)-2-cyano-3,4-dihydroxytetrahydrofuran-2-yl)methyl 2-ethylbutanoate], for which the half-life at 2 μM in series [1] amounted to 510 min. Further, the EC50 came out at 8.69 µM in series [2] and 9.47 µM in series [3].
For the compound `N#C[C@]1(COC(=O)C2CCC2)O[C@@H](c2ccc3c(N)ncnn23)[C@H](O)[C@@H]1O` [Compound 8, ((2R,3S,4R,5S)-5-(4-aminopyrrolo[2,1-f][1,2,4]triazin-7-yl)-2-cyano-3,4-dihydroxytetrahydrofuran-2-yl)methyl cyclobutanecarboxylate], the half-life at 2 μM in series [1] turned out to be 10 min. Moreover, the EC50 in series [2] is 8.79 µM; in series [3], 10.1 µM.
On the same counts, the results for `CCC(CC)C(=O)Nc1ncnn2c([C@@H]3O[C@](C#N)(COC(=O)C(CC)CC)[C@@H](O)[C@H]3O)ccc12` [Compound 11, ((2R,3S,4R,5S)-2-cyano-5-(4-(2-ethylbutanamido)pyrrolo[2,1-f][1,2,4]triazin-7-yl)-3,4-dihydroxytetrahydrofuran-2-yl)methyl 2-ethylbutanoate] are 95 min, 25.2 µM and 24.6 µM.
As to `CC(C)(C)CC(=O)OC[C@@]1(C#N)O[C@@H](c2ccc3c(N)ncnn23)[C@H](O)[C@@H]1O` [Compound 13, ((2R,3S,4R,5S)-5-(4-aminopyrrolo[2,1-f][1,2,4]triazin-7-yl)-2-cyano-3,4-dihydroxytetrahydrofuran-2-yl)methyl 3,3-dimethylbutanoate], the half-life at 2 μM in series [1] is 755 min. In addition, the EC50 in series [2] was 10.9 µM; in series [3], 8.59 µM.
The matching figures for `CCCC(=O)OC[C@@]1(C#N)O[C@@H](c2ccc3c(N)ncnn23)[C@H](O)[C@@H]1O` [Compound 6, ((2R,3S,4R,5S)-5-(4-aminopyrrolo[2,1-f][1,2,4]triazin-7-yl)-2-cyano-3,4-dihydroxytetrahydrofuran-2-yl)methyl butyrate]: 38 min, 7.71 µM and 7.69 µM.

These data come from patent publication US20240199676A1, “ANTIVIRAL COMPOUNDS AND METHODS OF MAKING AND USING THE SAME” (Gilead Sciences, Inc., priority 2022, published 2024).
